Reference: ChEMBL document CHEMBL1139563, “Synthesis of all-trans arachidonic acid and its effect on rabbit platelet aggregation” (Bioorg Med Chem Lett, 2005)

What was measured:
Assay type in all cases: functional
Oryctolagus cuniculus [1] = organism: Oryctolagus cuniculus; assay: Inhibitory activity against PAF (8E-10M) induced aggregation of rabbit platelet at 2.1E-4 M concentration
Oryctolagus cuniculus [2] = organism: Oryctolagus cuniculus; assay: Inhibitory activity against PAF (4e-10 M) induced aggregation of rabbit platelet at 3E-5 M concentration
Oryctolagus cuniculus [3] = organism: Oryctolagus cuniculus; assay: Inhibitory concentration against PAF (8E-10M) induced aggregation of rabbit platelet at 2.1E-4 M concentration
Oryctolagus cuniculus [4] = organism: Oryctolagus cuniculus; assay: Inhibitory activity against PAF (4e-10 M) induced aggregation of rabbit platelet at 7.5E-5 M concentration
Oryctolagus cuniculus [5] = organism: Oryctolagus cuniculus; assay: Inhibitory activity against PAF (4e-10 M) induced aggregation of rabbit platelet at 2.1E-4 M concentration
Oryctolagus cuniculus [6] = organism: Oryctolagus cuniculus; assay: Inhibitory activity against PAF (4e-10 M) induced aggregation of rabbit platelet at 1.5E-6 M concentration
Oryctolagus cuniculus [7] = organism: Oryctolagus cuniculus; assay: Inhibitory activity against PAF (4e-10 M) induced aggregation of rabbit platelet at 1.5E-5 M concentration

CCCCC/C=C\C/C=C\C/C=C\C/C=C\CCCC(=O)O [ARACHIDONIC ACID]
Inhibition (Oryctolagus cuniculus [1]): 100%
Inhibition (Oryctolagus cuniculus [2]): 24%
IC50 (Oryctolagus cuniculus [3]): ~60 µM
Inhibition (Oryctolagus cuniculus [4]): 61%
Inhibition (Oryctolagus cuniculus [5]): 100%
Inhibition (Oryctolagus cuniculus [6]): 0%
Inhibition (Oryctolagus cuniculus [7]): 6%
